Results: BindingDB's records for patent US20250313563 (The Broad Institute, 2025)
Where “and” joins values, the source holds several entries; their conditions need not be identical. Identical values can stand only once.

Biological target: Glycogen synthase kinase-3 beta (Homo sapiens, UniProt P49841)
Assay: TR-FRET Assay
Experimental: The assay was performed in a white, 384 well, low volume, flat bottom plate (Grenier). […] The kinase activity was quenched with 2 μL of 250 mM EDTA. A 10 μL volume of 40 nM Strepavidin-d2, 2 nM Tb2+-pSer641 antibody in TR-FRET Detection Buffer (Invitrogen) was then added.

Sequence of Glycogen synthase kinase-3 beta (P49841 whole entry): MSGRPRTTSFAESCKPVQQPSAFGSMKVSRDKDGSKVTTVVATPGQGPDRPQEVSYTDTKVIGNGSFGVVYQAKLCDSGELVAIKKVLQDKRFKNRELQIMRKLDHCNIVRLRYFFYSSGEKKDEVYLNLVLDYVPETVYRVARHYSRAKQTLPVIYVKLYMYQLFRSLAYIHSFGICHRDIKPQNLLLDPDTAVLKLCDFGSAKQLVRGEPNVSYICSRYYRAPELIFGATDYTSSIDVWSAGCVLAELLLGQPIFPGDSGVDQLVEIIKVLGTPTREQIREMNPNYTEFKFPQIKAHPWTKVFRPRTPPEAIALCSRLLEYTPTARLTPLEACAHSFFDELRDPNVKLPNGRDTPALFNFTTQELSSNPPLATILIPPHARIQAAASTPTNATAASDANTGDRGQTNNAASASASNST

| SMILES | IC50 |
| --- | --- |
| CC[C@@]1(c2cccc(-c3ccnn3C)c2)C2=C(CC(C)(C)CC2=O)NC2N=NC(C)=C21 (some centres undefined) [US20250313563, Compound 913023] | < 0.1 µM and 0.1 to 1 µM |
| CC[C@@]1(c2cccc(N(C)c3ncccn3)c2)C2=C(CC(C)(C)NC2=O)NC2N=NC(C(F)(F)F)=C21 (some centres undefined) [US20250313563, Compound 949181] | < 0.1 µM and 0.1 to 1 µM |
| CC[C@@]1(c2cccc(C(F)(F)F)c2)C2=C(CCN(c3cnc(OC)nc3)C2=O)NC2N=NC(C)=C21 (some centres undefined) [US20250313563, Compound 949126] | 0.1 to 1 µM |
| CCC1(c2cccc(N3CCC[C@H]3C)c2)C2=CN=NC2NC2=C1C(=O)CC(C)(C)C2 (some centres undefined) [US20250313563, Compound 885204] | 0.1 to 1 µM |
| CC[C@@]1(c2cccc(N3CCCCC3)c2)C2=C(CC(C)(C)NC2=O)NC2N=NC(C(F)(F)F)=C21 (some centres undefined) [US20250313563, Compound 949183] | 0.1 to 1 µM |
| CC[C@@]1(c2cccc(C3=CN=NC3)c2)C2=C(CC(C)(C)CC2=O)NC2N=NC(C)=C21 (some centres undefined) [US20250313563, Compound 913025] | 0.1 to 1 µM |
| CCC1(c2cccc(-c3ccncc3)c2)C2=CN=NC2NC2=C1C(=O)CC(C)(C)C2 (centres undefined) [US20250313563, Compound 883984] | < 0.1 µM |
| CC[C@]1(c2cccc(C(F)(F)F)c2)C2=C(N=NC2)NC2=C1C(=O)N(C)[C@H]2C [US20250313563, Compound 913473] | 0.1 to 1 µM |
| CC[C@@]1(c2cccc(OC)c2)C2=C(CC(C)(C)CC2=O)NC2N=NC(C(=O)OC)=C21 (some centres undefined) [US20250313563, Compound 901480] | 0.1 to 1 µM |
| COc1cccc(S(=O)(=O)N2CCC3(CC2)C2=C(N=NC2)NC2=C3C(=O)CC(C)(C)C2)c1 [US20250313563, Compound 943962] | 0.1 to 1 µM |
| CC[C@]1(c2cccc(-c3ccnc(C)c3C)c2)C2=CN=NC2NC2=C1C(=O)CC(C)(C)C2 (some centres undefined) [US20250313563, Compound 943516] | 1 to 5 µM |

Other lines, results leading:

| IC50 | SMILES |
| --- | --- |
| 0.1 to 1 µM | CC[C@]1(c2cccc(-c3cc(C)nn3C)c2)C2=CN=NC2NC2=C1C(=O)NC(C)(C)C2 (some centres undefined) [US20250313563, Compound 943966] |
| 0.1 to 1 µM | CC[C@]1(c2cccc(C(F)(F)F)c2)C2=CN=NC2NC2=C1C(=O)N(c1cnc(OC)nc1)[C@H](C)C2 (some centres undefined) [US20250313563, Compound 949351] |
| 0.1 to 1 µM | CCC1(c2cccc(C(F)(F)F)c2)C2=C(N=NC2)NC2=C1C(=O)N(C)C2C (centres undefined) [US20250313563, Compound 911957] |
| 1 to 5 µM | CC(C)(C)CC1=C2C(N=N1)NC1=C(C(=O)CC(C)(C)C1)[C@]21CCc2c(F)cccc21 (some centres undefined) [US20250313563, Compound 791256] |
| < 0.1 µM and 0.1 to 1 µM | CCCS(=O)(=O)c1cccc([C@@]2(CC)C3=CN=NC3NC3=C2C(=O)CC(C)(C)C3)c1 (some centres undefined) [US20250313563, Compound 929447] |
| 0.1 to 1 µM and > 5 µM | CC[C@@]1(c2cccc(-c3cnn(C(C)(C)C)c3)c2)C2=CN=NC2NC2=C1C(=O)NC(C)(C)C2 (some centres undefined) [US20250313563, Compound 949112] |
| 1 to 5 µM | CC[C@]1(c2cccc(-c3ccncc3C)c2)C2=CN=NC2NC2=C1C(=O)NC(C)(C)C2 (some centres undefined) [US20250313563, Compound 947576] |
| 1 to 5 µM | CC1(C)CC(=O)C2=C(C1)NC1N=NC(C3(C(F)(F)F)CC3)=C1[C@@]21CCc2c(F)cccc21 (some centres undefined) [US20250313563, Compound 816839] |
| 0.1 to 1 µM | CC[C@]1(c2cccc(Nc3ncccn3)c2)C2=CN=NC2NC2=C1C(=O)CC(C)(C)C2 (some centres undefined) [US20250313563, Compound 945943] |
| 0.1 to 1 µM | CC[C@]1(c2cccc(C(F)(F)F)c2)C2=CN=NC2NC2=C1C(=O)N(c1ccn(C)n1)CC2 (some centres undefined) [US20250313563, Compound 949835] |
| 0.1 to 1 µM | Cn1ccc(S(=O)(=O)N2CC[C@@]3(C2)C2=C(N=NC2)NC2=C3C(=O)CC(C)(C)C2)n1 [US20250313563, Compound 945712] |
| 0.1 to 1 µM | CC[C@@]1(c2cccc(-c3cnn(C)c3C#N)c2)C2=CN=NC2NC2=C1C(=O)NC(C)(C)C2 (some centres undefined) [US20250313563, Compound 948827] |
| 0.1 to 1 µM | CC[C@]1(c2cccc(C(F)(F)F)c2)C2=CN=NC2NC2=C1C(=O)N(c1cccc(C)c1)CC2 (some centres undefined) [US20250313563, Compound 949040] |
